Article PMC7536072, “Molecular and functional characterization of somatostatin-type signalling in a deuterostome invertebrate” (Open Biology, 2020)
Entries after “also recorded” stand apart in the source; their conditions may differ. Bridges are numbered along the chain shown (N, C = ends). Where no end group is shown, it is not given here.

What was measured:
[1] = system: ArSSR1; experiment: GFP-aequorin luminescence receptor activation assay, CHO-K1 cells, ArSSR1 + Gα16; assay type: cell-based, Asterias rubens
[2] = system: ArSSR2; experiment: GFP-aequorin luminescence receptor activation assay, CHO-K1 cells, ArSSR2 + Gα16; assay type: cell-based, Asterias rubens
[3] = system: tube foot preparations from A. rubens; experiment: in vitro relaxation of tube foot preparations; set-up: species or system Asterias rubens
Experimental: Synthetic ArSS2 ([…], with a disulfide bridge between the cysteine residues) was custom synthesized (Peptide Protein Research Ltd, Fareham, UK) to enable testing of its pharmacological effects on in vitro preparations of organs/muscles from A. rubens. ArSS2 was tested for its in vitro effects on the contractility of tube foot, apical muscle and cardiac stomach preparations from at least six different specimens of A. rubens. Individual tube foot preparations were dissected from starfish arms with their corresponding ampulla intact. […] Data collected from PowerLab were visualized as traces and analysed using LabChart (v. 8.0.7) software installed on a laptop computer (Lenovo E540, Windows 7 Professional). […]
(§1) To examine the effects of ArSS2 on tube foot and cardiac stomach preparations, 10^−6 M acetylcholine (ACh) or artificial seawater (ASW) containing 30 mM added KCl was used to induce contraction of these preparations, respectively. Once a stable baseline contracted state was achieved, synthetic ArSS2 was added into the organ bath to sequentially achieve final concentrations in the range of 10^−10 to 10^−6 M. For these experiments, the contracting effect of 10^−6 M ACh or ASW containing 30 mM added KCl was defined as 100% and the relaxing effects of ArSS2 were then calculated as a percentage reversal of the 100% contracted state.

[4] = system: cardiac stomach preparations from A. rubens; experiment: in vitro relaxation of cardiac stomach preparations; set-up: species or system Asterias rubens
Experimental: (§2) Synthetic ArSS2 ([…], with a disulfide bridge between the cysteine residues) was custom synthesized (Peptide Protein Research Ltd, Fareham, UK) to enable testing of its pharmacological effects on in vitro preparations of organs/muscles from A. rubens. ArSS2 was tested for its in vitro effects on the contractility of tube foot, apical muscle and cardiac stomach preparations from at least six different specimens of A. rubens. Individual tube foot preparations were dissected from starfish arms with their corresponding ampulla intact. Then cotton ligatures were tied around the ambulacral body wall and the tube foot disc and then the external epithelium of the tube foot was scraped off using a blunt scalpel blade to facilitate penetration of peptides when tested in vitro, as described previously. Apical muscle preparations were dissected from the aboral body wall with approximately 1 cm strips of apical muscle tied at each end with cotton ligatures. Cardiac stomach preparations were dissected as described previously and then were tied at the aboral side of the cardiac stomach and around the oesophagus with cotton ligatures. The dissected preparations were tied to a fixed metal hook orally and to a high-grade isotonic transducer (MLT0015; ADInstruments Ltd; Oxford, UK) aborally, suspended in a 20 ml aerated organ bath containing artificial seawater at approximately 11°C. The transducer was connected via a bridge amplifier (FE221 Bridge Amp, ADInstruments Ltd, Oxford, UK) to data acquisition hardware (PowerLab 2/36, ADInstruments Ltd, Oxford, UK). Data collected from PowerLab were visualized as traces and analysed using LabChart (v. 8.0.7) software installed on a laptop computer (Lenovo E540, Windows 7 Professional).
as §1
Experiments were performed where the effects of ArSS2, S2 and asterotocin (at 10^−7 and 10^−6 M) on cardiac stomach preparations (n = 6) were compared. For these experiments, the effect of 10^−7 or 10^−6 M S2 was defined as 100% and the effect of asterotocin or ArSS2 was calculated as a % of the effect of S2. To determine if there were significant differences in magnitude of the relaxing effects of the three peptides on cardiac stomach preparations, data were analysed statistically using a two-tailed Student's t-test in Prism 6.

[5] = system: apical muscle preparations from A. rubens; experiment: in vitro contractility of apical muscle preparations; set-up: species or system Asterias rubens; conditions: data not shown
Experimental: as §2, with “The dissected preparations were tied to a fixed metal hook orally and to a high-grade isotonic transducer (MLT0015; ADInstruments Ltd; Oxford, UK) aborally, suspended in a 20 ml aerated organ bath containing artificial seawater at approximately 11°C. The transducer was connected via a bridge amplifier (FE221 Bridge Amp, ADInstruments Ltd, Oxford, UK) to data acquisition hardware (PowerLab 2/36, ADInstruments Ltd, Oxford, UK).” left out, “Professional). […]” for “Professional).”

[6] = 10^−7 M, KCl-contracted, mean, n = 6

Q: “RAKNARCMADFWKGRGLVDC (disulfide 7-20 (inferred)) [ArSS2]” was tested. Which EC50 ([1]; ArSSR1 + Gα16 in CHO-K1 cells expressing GFP-aequorin (G5A), peptide 10^−21 to 10^−4 M, luminescence over 35 s, mean of at least three independent experiments, three repeats each, read-out: half-maximal response concentration (EC50)) did it give?
A: Its EC50 is 0.088 nM.

Q: And the “luminescence compared with control” value ([1]; ArSSR1, 10^−5 M, vs BSA media (control) and, for ArSS2, vs ArSS1, one-way ANOVA, Bonferroni)?
A: Its value is “significantly higher than the luminescence in cells exposed to ArSS1 or BSA media (control)”.

Q: What about the triggering of luminescence ([1]; ArSSR1, 10^−21 to 10^−4 M) of the same sequence?
A: Its triggering of luminescence is “caused dose-dependent luminescence”.

Q: And the “efficacy compared between receptors” value ([1]; ArSSR1 and ArSSR2 vs ArSSR3, 10^−5 M)?
A: The value was “higher for ArSSR1 and ArSSR2 than for ArSSR3”.

Q: What about the EC50 ([2]; ArSSR2 + Gα16 in CHO-K1 cells expressing GFP-aequorin (G5A), peptide 10^−21 to 10^−4 M, luminescence over 35 s, mean of at least three independent experiments, three repeats each, read-out: half-maximal response concentration (EC50)) of the same sequence?
A: The EC50 was 0.0042 nM.

Q: What about the “mean total luminescence response relative to background” value ([2]; ArSSR2, 10^−5 M, background detected with assay media or with ArSS1) of the same sequence?
A: The value was 166 303 times the background luminescence.

Q: What about the “luminescence compared with control” value ([2]; ArSSR2, 10^−5 M, vs BSA media (control) and, for ArSS2, vs ArSS1, one-way ANOVA, Bonferroni) of the same sequence?
A: Its value is “significantly higher than the luminescence in cells exposed to ArSS1 or BSA media (control)”.

Q: What about the triggering of luminescence ([2]; ArSSR2, 10^−21 to 10^−4 M) of the same sequence?
A: The triggering of luminescence was “caused dose-dependent luminescence”.

Q: And the “reversal of ACh-induced tube foot contraction” value ([3]; 10^−6 M, contraction induced by 10^−6 M acetylcholine = 100%, artificial seawater, approximately 11°C, mean ± s.e.m., n = 6)?
A: Its value is 91% ± 13%.

Q: What about the “relaxation of tube foot preparations” value ([3]; pre-contracted with 10^−6 M ACh, tested 10^−10 to 10^−6 M) of the same sequence?
A: The value was “dose-dependent relaxation of tube foot preparations at concentrations between 10^−9 and 10^−6 M”.

Q: What about the “extent of relaxation of cardiac stomach preparations” value ([4]; 10^−6 M) of the same sequence?
A: The value was “maximal relaxation”.

Q: What about the “magnitude of cardiac stomach relaxing action compared with S2” value ([4]; 10^−6 M, KCl-contracted, n = 6) of the same sequence?
A: Its value is “not significantly different to the effect S2”.

Q: What about the “reversal of KCl-induced cardiac stomach contraction” value ([4]; 10^−6 M, contraction induced by 30 mM KCl = 100%, artificial seawater, approximately 11°C, mean ± s.e.m., n = 10) of the same sequence?
A: Its value is 60 ± 18%.

Q: What about the “magnitude of cardiac stomach relaxing action relative to S2” value [4, 6] of the same sequence?
A: Its value is 1.5 times the effect of S2.

Q: What about the “magnitude of cardiac stomach relaxing action relative to asterotocin” value [4, 6] of the same sequence?
A: The value was 44 % of the effect of asterotocin.

Q: And the “relaxing effect compared with S2” value ([4]; 10^−7 M, two-tailed Student's t-test p = 0.0303, n = 6)?
A: Its value is “significantly larger than the effect of S2”.

Q: What about the “relaxation of cardiac stomach preparations” value ([4]; pre-contracted with 30 mM KCl, tested 10^−10 to 10^−6 M) of the same sequence?
A: The value was “dose-dependent relaxation of cardiac stomach preparations at concentrations between 10^−9 and 10^−6 M”.

Q: What about the “effect on contractility of apical muscle preparations” value [5] of the same sequence?
A: The value was “did not cause relaxation; also recorded: no observable effects”.
